Results published in US20060172987A1 (DSM IP Assets B.V., priority 2003, published 2006).

Assays:
Format in all cases: physicochemical
[1] = Particle size distribution by laser diffraction (Malvern particle sizer 2600 C)
Text: The d10 and d50 are known ways for indicating a particle size distribution, d50 referring to the value for the particle size such that 50 vol. % of the crystals has a particle size smaller than said value. The d50 is also referred to as average volume-based grain size. Likewise, d10 refers to the value for the particle size such that 10 vol. % of the crystals has a particle size smaller than said value. A preferred way for determining d10 and d50 is laser diffraction, preferably using Malvern equipment. A suitable apparatus for […] determining d10 and d50 is a Malvern particle sizer 2600 C obtainable from Malvern Instruments Ltd., Malvern UK, using an objective of f=300 mm and a beam length of is 14.30 mm. A polydisperse analysis model may advantageously be used.
The particle size distribution (including d10 and d50) was determined using a Malvern particle sizer 2600 C with objective f=300 mm, malvern sample measurement unit PS1 and a Malvern dry powder feeder PS 64. The beam length was 14.30 mm. A polydisperse analysis model was used.

[2] = Free water content by dynamic vapour sorption (adsorption isotherm, VTI-SGA 100); conditions: equilibrium relative humidity of 30%, 25° C.
Text: The free water content of a sample can be determined by dynamic vapour sorption. The underlying principle is that the weight of the sample is monitored while it is contacted with air having a preconditioned relative humidity. As a result of water take-up or water release the sample weight will change until the equilibrium situation has been established. The sample weight in this equilibrium situation is the sample weight corresponding to the equilibrium relative humidity, the latter being the relative humidity of the preconditioned air with which the sample is contacted. By repeating this procedure for different values of the equilibrium relative humidity, the sample weight can be determined as a function of the equilibrium relative humidity. […]
As used herein, the free water content measured at an equilibrium relative humidity of 30% and at a temperature of 25° C. is in particular defined as ((w30-w10)/w10)*100%, wherein […]
The free water content, including the values for w30 and w10 are preferably determined using dynamic vapour sorption, for instance using a VTI-SGA 100 vapour sorption analyser. […]
Adsorption isotherms were determined using dynamic vapour sorption, using a VTI-SGA 100 vapour sorption analyser. […]

[3] = Bulk density (USP 24, method I); conditions: for Bulk dens.: crystalline powder as obtained, trihydrate
Text: The crystalline powder according according to this aspect of the invention has improved flow properties, without having to be subjected to processes such as granulation, compactation, agglomeration or aggregation, has good colour properties, good stability and a high dissolution rate. If it would still be desired to subject the crystalline powder to processes such as granulation, compactation, agglomeration or aggregation, and the like, applying these processes is facilitated due to the improved flow properties of the crystalline powder according to this aspect of the invention. Moreover, an increased quantity of crystalline powder can be fed into a capsule of a given size. The bulk density is preferably determined according to USP 24, method I, (page 1913). Preferably, of the crystalline powder has a bulk density higher than 0.46 g/ml, preferably higher than 0.5 g/ml, more preferably higher than 0.55 g/ml. This further improves the flow properties. Moreover, an increased bulk density is advantageous as crystalline powder may be fed into a certain volume, for instance a capsule. There is no specific upper limit for the bulk density. The bulk density may be less than 0.8 g/ml, for instance less than 0.7 g/ml.

[4] = Tapped density (USP 24, method II); conditions: for Tap. dens.: crystalline powder as obtained, trihydrate
Text: In a preferred embodiment, the crystalline powder according to the invention has a tapped density higher than 0.6 g/ml, preferably higher than 0.7, more preferably higher than 0.8 g/ml. An increased tapped density improves the flow properties. Moreover, an increased tapped density is advantageous as more products may be fed into a certain volume, for instance a capsule. There is no specific upper limit for the tapped density. The tapped density may be less than 1.2 g/ml, for instance less than 1.1 g/ml, for instance less than 1.0 g/ml. The tapped density is preferably determined according to USP 24, method II, (page 1914).

[5] = crystalline powder as obtained, trihydrate
[6] = overheads fraction after air jet sieving, 75 μm screen, 10 minutes

d10 ([1]; crystalline powder as obtained) [μm]	d50 ([1]; crystalline powder as obtained) [μm]	Free water content at ERH = 30% [2] [wt. %]	d10 [1, 5] [μm]	d50 [1, 5] [μm]	Bulk dens. [3] [g/mL]	Tap. dens. [4] [g/mL]	d10 [1, 6] [μm]	d50 [1, 6] [μm]	bulk density [3, 6] [g/mL]	tapped density [4, 6] [g/mL]	SMILES
2.7	8.3	0.11	–	–	–	–	–	–	–	–	CC1(C)S[C@@H]2[C@H](NC(=O)[C@H](N)c3ccc(O)cc3)C(=O)N2[C@H]1C(=O)O [Comp. A, amoxicillin, reference compound]
–	–	0.05	11.4	43.1	0.51	0.73	–	–	–	–	CC1(C)S[C@@H]2[C@H](NC(=O)[C@H](N)c3ccc(O)cc3)C(=O)N2[C@H]1C(=O)O.O.O.O [Ex. I, amoxicillin trihydrate]
–	–	–	17.4	66.3	0.25	0.47	–	–	–	–	CC1(C)S[C@@H]2[C@H](NC(=O)[C@H](N)c3ccc(O)cc3)C(=O)N2[C@H]1C(=O)O.O.O.O [Example V, amoxicillin trihydrate]
–	–	–	19	61	0.58	0.79	36	86	0.59	0.74	CC1(C)S[C@@H]2[C@H](NC(=O)[C@H](N)c3ccc(O)cc3)C(=O)N2[C@H]1C(=O)O.O.O.O [Example VI, amoxicillin trihydrate]
